Source: ChEMBL document CHEMBL5360661, “Structure-Activity Relationship Study of 1H-Pyrrole-3-carbonitrile Derivatives as STING Receptor Agonists” (ACS Med Chem Lett, 2023)

Experiments:
[1] = target: T1, Stimulator of interferon genes protein (Homo sapiens, UniProt Q86WV6); experiment: Agonist activity at STING in PMA-differentiated wildtype human THP1-Blue ISG cells harboring IRF-inducible SEAP reporter construct incubated for 24 hrs by QUANTI-Blue assay; type: cell-based
Target sequence in this assay (Q86WV6 whole entry, the tested form may be a part): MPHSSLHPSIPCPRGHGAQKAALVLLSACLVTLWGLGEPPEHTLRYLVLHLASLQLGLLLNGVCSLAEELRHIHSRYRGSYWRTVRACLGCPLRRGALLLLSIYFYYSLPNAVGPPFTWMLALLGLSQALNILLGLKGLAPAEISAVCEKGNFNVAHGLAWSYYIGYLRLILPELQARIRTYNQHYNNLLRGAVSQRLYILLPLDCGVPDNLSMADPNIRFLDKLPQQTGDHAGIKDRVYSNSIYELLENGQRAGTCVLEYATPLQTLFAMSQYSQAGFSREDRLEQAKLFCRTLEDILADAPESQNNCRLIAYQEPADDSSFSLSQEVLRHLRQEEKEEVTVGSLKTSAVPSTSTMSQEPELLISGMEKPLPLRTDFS

Homo sapiens [2] = species: Homo sapiens; experiment: (§1) Binding affinity to recombinant human STING R232H variant C-terminal domain (139 to 378 residues) expressed in Escherichia coli BL21 (DE3) cells assessed as thermal stabilization by measuring change in melting temperature at 50 uM incubated at 25 to 95 degreeC for 45 mins by SYPRO orange dye based fluorescence analysis
[3] = tested on: Stimulator of interferon genes protein (Homo sapiens), Q86WV6 [UNDEFINED MUTATION]; experiment: as §1, with “recombinant wildtype” for “recombinant”, “R232” for “R232H”
[4] = Competitive inhibition of 5-FAM labelled diABZI binding to recombinant human STING R293Q variant C-terminal domain (139 to 378 residues) expressed in Escherichia coli BL21 (DE3) cells incubated for 10 mins by fluorescence polarization assay
[5] = target: T1, Stimulator of interferon genes protein; experiment: Competitive inhibition of 5-FAM labelled diABZI binding to recombinant wildtype human STING R232 variant C-terminal domain (139 to 378 residues) expressed in Escherichia coli BL21 (DE3) cells incubated for 10 mins by fluorescence polarization assay
Target sequence in this assay (Q86WV6 whole entry, looked up, stated change not applied, the tested form may be a part): as the sequence (Q86WV6 whole entry, the tested form may be a part) above

[6] = Competitive inhibition of 5-FAM labelled diABZI binding to recombinant human STING G230A and R293Q variant C-terminal domain (139 to 378 residues) expressed in Escherichia coli BL21 (DE3) cells incubated for 10 mins by fluorescence polarization assay
[7] = Competitive inhibition of 5-FAM labelled diABZI binding to recombinant human STING R232H variant C-terminal domain (139 to 378 residues) expressed in Escherichia coli BL21 (DE3) cells incubated for 10 mins by fluorescence polarization assay
Homo sapiens [8] = species: Homo sapiens; experiment: as §1, with “G230A and R293Q” for “R232H”
[9] = target: T2, Stimulator of interferon genes protein (Mus musculus, UniProt Q3TBT3); experiment: Competitive inhibition of 5-FAM labelled diABZI binding to recombinant 6-his tagged mouse STING C-terminal domain (144 to 378 residues) expressed in Escherichia coli BL21 (DE3) cells incubated for 10 mins by fluorescence polarization assay
T2 sequence (Q3TBT3 whole entry): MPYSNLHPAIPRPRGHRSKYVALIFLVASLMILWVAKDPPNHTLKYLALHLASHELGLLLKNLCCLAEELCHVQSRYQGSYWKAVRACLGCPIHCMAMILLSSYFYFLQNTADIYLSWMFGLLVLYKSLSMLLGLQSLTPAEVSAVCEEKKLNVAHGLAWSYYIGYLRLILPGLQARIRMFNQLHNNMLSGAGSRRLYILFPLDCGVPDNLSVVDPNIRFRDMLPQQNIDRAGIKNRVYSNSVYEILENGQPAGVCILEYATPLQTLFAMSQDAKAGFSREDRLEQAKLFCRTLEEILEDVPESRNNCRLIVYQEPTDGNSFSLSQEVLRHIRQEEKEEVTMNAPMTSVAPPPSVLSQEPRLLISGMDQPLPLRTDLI

Homo sapiens [10] = species: Homo sapiens; experiment: as §1, with “R293Q” for “R232H”
[11] = target: T3, Stimulator of interferon genes protein (Mus musculus) (UniProt Q3TBT3); experiment: as §1, with “6-His tagged mouse” for “human”, “STING” for “STING R232H variant”, “(144” for “(139”
T3 sequence (whole entry): T2 sequence (Q3TBT3 whole entry)

Sequence of Stimulator of interferon genes protein (Homo sapiens), Q86WV6 [UNDEFINED MUTATION] (Q86WV6 whole entry, looked up, stated change not applied, the tested form may be a part): as the sequence (Q86WV6 whole entry, the tested form may be a part) above

SMILES	EC50 [1]	ΔTm (Homo sapiens [2])	other results
N#Cc1ccn(-c2ccc(C(=O)Nc3cc(F)ccc3C(=O)O)nn2)c1	48.1 µM	0 °C	–
COc1cc(C(=O)O)c(NC(=O)c2ccc(-n3ccc(C#N)c3)nn2)cc1F	44.3 µM	0 °C	–
N#Cc1ccn(-c2ccc(C(=O)Nc3cc(C#CC4CC4)c(F)cc3C(=O)O)nn2)c1	69.8 µM	-0.5 °C	–
N#Cc1ccn(-c2ccc(C(=O)Nc3cc(F)c(Br)cc3C(=O)O)nn2)c1	44.2 µM	1 °C	–
CCCn1c(NC(=O)c2cc(C)nn2C)nc2cc(C(N)=O)cc(OC3COC3)c21	–	6 °C	ΔTm [3]: 4.5 °C; IC50 [4]: 3.82 µM; IC50 [5]: 3.16 µM; IC50 [6]: 3.66 µM; IC50 [7]: 2.78 µM; ΔTm (Homo sapiens [8]): 5 °C; IC50 [9]: 3.75 µM; ΔTm (Homo sapiens [10]): 5.5 °C; ΔTm [11]: 5.5 °C

More lines, main results first:

EC50 [1]	SMILES	ΔTm (Homo sapiens [2])	other results
35 µM	CC#Cc1cc(NC(=O)c2ccc(-n3ccc(C#N)c3)nn2)c(C(=O)O)cc1F	0.5 °C	–
9.75 µM	COc1cc(NC(=O)c2ccc(-n3ccc(C#N)c3)nn2)c(C(=O)O)cc1F	4 °C	–
6.33 µM	N#Cc1ccn(-c2ccc(C(=O)Nc3cc(Br)c(Br)cc3C(=O)O)nn2)c1	6.5 °C	–
4.86 µM	N#Cc1ccn(-c2ccc(C(=O)Nc3cc(Br)c(F)cc3C(=O)O)nn2)c1	6 °C	–
19.8 µM	C=Cc1cc(NC(=O)c2ccc(-n3ccc(C#N)c3)nn2)c(C(=O)O)cc1F	4.5 °C	–
2.53 µM	N#Cc1ccn(-c2ccc(C(=O)Nc3cc(Br)c(Cl)cc3C(=O)O)nn2)c1	8.5 °C	ΔTm [3]: 6.5 °C; IC50 [4]: 2.03 µM; IC50 [5]: 1.98 µM; IC50 [6]: 0.7 µM; IC50 [7]: 3.58 µM; ΔTm (Homo sapiens [8]): 13.5 °C; IC50 [9]: 4.36 µM; ΔTm (Homo sapiens [10]): 7.5 °C; ΔTm [11]: 7 °C
